Experimental data from PubChem BioAssay (NCI).
Several values for one entry are separate records, joined by “and”; a condition that tells them apart may be missing. Identical values can stand only once.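 Growth conditions: 96-well plates. Treatment: test compound, 48 hours, 5 concentrations. Analysis: linear interpolation between bracketing concentrations; unreached endpoints set to highest concentration. The concentration for 50% growth inhibition is given as GI50. The concentration for full growth arrest is given as TGI.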

How the values were obtained:
Experiment in all cases: DTP human tumour cell line panel, 48 h
[1] = system: COLO 205 colon
[2] = system: HOP-92 NSCLC
[3] = system: HS 578T breast
[4] = system: K-562 leukemia
[5] = system: LOX IMVI melanoma
[6] = system: MCF7 breast
[7] = system: MDA-MB-231 breast
[8] = system: OVCAR-5 ovarian
[9] = system: SR leukemia
[10] = system: TK-10 renal

Row | Compound | GI50 [1] | TGI [1] | GI50 [2] | TGI [2] | GI50 [3] [µM] | TGI [3] | GI50 [4] [µM] | TGI [4] | GI50 [5] | TGI [5] | GI50 [6] [µM] | GI50 [7] [µM] | TGI [7] | GI50 [8] | TGI [8] | GI50 [9] | TGI [9] | GI50 [10] | TGI [10] | TGI [6]
1 | CN(c1ccccc1)c1c2ccccc2nc2[nH]c3ccccc3c12 | 3.45 µM | 16.1 µM | 1.79 µM | 6.46 µM | 3.06 | 12.9 µM | 2.41 | > 56.8 µM | 1.43 µM | 4 µM | 0.769 | 1.93 | 4.63 µM | 12.6 µM | 39.5 µM | 0.336 µM | > 100 µM | 1.26 µM | 3.5 µM | –
2 | O=C1NC(=O)C2C3C=CC(C12)C1C2C(=O)NC(=O)C2C31 (stereo not drawn) | > 62.6 µM and 108 µM | 198 µM and > 892 µM | > 1000 µM | 230 µM and > 1000 µM | 419 | 250 µM and > 562 µM | 137 | 250 µM and > 1000 µM | – | > 85.7 µM and 250 µM and > 1000 µM | 537 | > 801 | > 1000 µM | > 1000 µM | > 1000 µM | 68.9 µM and 108 µM | 250 µM and > 871 µM | 695 µM | > 1000 µM | 250 µM and > 1000 µM
3 | N#C[Se]CCN1C(=O)c2ccccc2C1=O | 3.07 µM | 9.05 µM | 1.37 µM | 3.12 µM | 1.43 | 6.09 µM | 2.35 | 15.5 µM | 1.8 µM | 4.15 µM | 2.24 | 2.74 | 9.65 µM | 2.24 µM | 9.38 µM | 3.21 µM | 23.9 µM | 2.13 µM | 6.3 µM | 13.1 µM
4 | FC(F)(F)c1cccc(CNC2CCN(CCc3ccccc3)CC2)c1 | 16.9 µM | 34.3 µM | 11.2 µM | 47.1 µM | 17.7 | 57.5 µM | 15.5 | 42.9 µM | 15.5 µM | 29.1 µM | 16 | 12.6 | 35.2 µM | 27.2 µM | > 100 µM | 15.1 µM | 41.6 µM | 30.7 µM | > 100 µM | 34.6 µM
5 | COc1nc(N)nc2nc[nH]c12 | > 1000 µM | 419 µM and > 800 µM and > 1000 µM | 511 µM and 596 µM | 480 µM and 800 µM and > 1000 µM | 603 | 500 µM and > 1000 µM | > 800 | > 1000 µM | 677 µM and 489 µM | 500 µM and 800 µM and > 1000 µM | 604 | 641 | 500 µM and > 1000 µM | 401 µM and > 728 µM | 491 µM and 800 µM and > 1000 µM | > 800 µM and 249 µM | 500 µM and > 800 µM and > 849 µM | 431 µM and 442 µM | 500 µM and 800 µM and > 1000 µM | 500 µM and > 1000 µM
6 | C=C(C)c1nc(Oc2ccccc2)nc(Oc2ccccc2)n1 | – | 17.2 µM | – | 10.8 µM | – | 44.1 µM | – | 5.49 µM | – | 4.51 µM | – | – | 28.9 µM | – | 30.2 µM | – | > 25.1 µM | – | 14 µM | 12.6 µM
7 | COc1ccc(Cn2c(Br)c3c(c2-c2cc(OC)c(OC)c(OC)c2)CCc2sc(N)nc2-3)cc1 | 1.07 µM | 3.7 µM | 0.477 µM | 2.88 µM | 2.08 | > 100 µM | 0.436 | > 32.9 µM | 0.869 µM | 6.14 µM | 0.371 | 1.92 | 7.1 µM | 4.26 µM | > 100 µM | 0.41 µM | 5.67 µM | 1.1 µM | 6.96 µM | 18.9 µM
8 | O=C1NC(=NCc2cccs2)O/C1=C\c1ccc2ncccc2c1 | 5.2 µM | 12.8 µM | 1.51 µM | 9.66 µM | 4.72 | 14.8 µM | 7.31 | > 25 µM | 5.87 µM | 19.4 µM | 5.02 | 8.23 | > 25 µM | 6.58 µM | 23.9 µM | 2.58 µM | 10.7 µM | 2.89 µM | 9.61 µM | 23.7 µM
9 | CN(C)c1ccc(/C=N/N=C(\C#N)[S][Sn]([Cl])([c]2ccccc2)[c]2ccccc2)cc1 | 1.64 µM | 3.52 µM | 1.42 µM | 2.87 µM | 2.7 | 9.19 µM | 0.339 | 3.55 µM | 1.04 µM | 2.31 µM | 0.283 | 1.54 | 3.19 µM | 1.59 µM | 3.24 µM | 1.57 µM | 8.57 µM | 1.46 µM | 2.8 µM | 1.35 µM
10 | O=c1c(Oc2ccc(F)cc2F)cc2cnc(NC3CCOCC3)nc2n1C1CC1 | > 25 µM | > 25 µM | 0.172 µM | 10.6 µM | > 16.9 | > 25 µM | > 25 | > 25 µM | > 25 µM | > 25 µM | > 25 | > 25 | > 25 µM | > 25 µM | > 25 µM | > 25 µM | > 25 µM | 19.8 µM | > 25 µM | > 25 µM
11 | COc1cc2c3c(n(CCCN)c(=O)c2cc1OC)-c1ccc(N)cc1C3=O | 0.554 µM | 10.2 µM | 2.3 µM | 15.3 µM | 2.02 | 12.5 µM | 0.155 | 12 µM | 0.333 µM | 2.16 µM | 1.66 | 3.09 | 21.2 µM | 7.87 µM | > 47.9 µM | 0.152 µM | 1.45 µM | 17.9 µM | 80.6 µM | > 38.2 µM
12 | COc1ccc(-n2c(=O)c3ccccc3n(Cc3ccc(C(=O)NO)cc3)c2=O)cc1 | 1.75 µM | 4.22 µM | 2.1 µM | 5.33 µM | 2.67 | 24.2 µM | 3.11 | > 100 µM | 1.76 µM | 3.24 µM | 2.68 | 3.06 | 8.63 µM | 2.34 µM | 7.56 µM | 2.86 µM | > 100 µM | 2.33 µM | 12.9 µM | 76.4 µM
